In PMC9449670, “Two types of peptides derived from the neurotoxin GsMTx4 inhibit a mechanosensitive potassium channel by modifying the mechanogate” (The Journal of Biological Chemistry, 2022):
Bridges are numbered along the chain shown (N, C = ends). Where no end group is shown, it is not given here.

Assays:
BK (mSlo1) channel = test: Macroscopic currents of regular BK (mSlo1) channel in excised inside-out patches from Xenopus laevis oocytes; format: cell-based, mouse; conditions: 10 μM peptide backfilled, 25 min, [Ca2+]i 100 μM, n = 4-6
Description: Macroscopic currents for regular BK (mSlo1) channels were recorded from Xenopus laevis oocytes by using standard excised inside–out patches. mSlo1 cDNA was a gift from the laboratory of Dr Christopher Lingle (Washington University), of which the vector pXMX was designed to promote […] expression ([12], [36], [52]). pClamp (Molecular Devices) was used to drive stimulus protocols and digitize currents as described previously ([51], [53]). The standard pipette (extracellular) solution contains (in millimolar): 140 KMES (methanesulfonate), 20 KOH, 10 Hepes, 2 MgCl2, and pH 7.0. The internal solution contains (in millimolar) 140 KMES, 20 KOH, 10 Hepes, 5 EGTA, and pH 7.0. The free intracellular [Ca^2+]i solution was buffered as described previously ([36], [52]).
(§1) In brief, the normal pipette solution was first filled in the tips of the electrodes, and then the same solution containing the peptide was backfilled. […] All experiments were performed with standard inside–out patch configuration at room temperature (22–25 °C).

[1] = molecular target: T1, stretch-activated BK channel (SAKcaC, SAKca-WT) (Gallus gallus, UniProt Q8AYS8); test: Single-channel excised inside-out patch clamp of native SAKcaC from ventricular myocytes, peptide backfilled in the pipette; format: cell-based, chick; conditions: for slope factor K^−1 of Po–V relationship (Boltzmann fit): control (no peptide) 25.1 ±1.16; for slope factor K^−1 of Po–V relationship (Boltzmann fit) / V1/2 of Po–V relationship (Boltzmann fit) / channel open probability Po with 50 nM peptide / channel open probability Po with 100 nM peptide / channel open probability Po with 0 nM peptide (control of the dose series) / Hill cofactor of dose–response curve: ventricular myocytes; for V1/2 of Po–V relationship (Boltzmann fit): control (no peptide) −91.5 ± 1.36 mV, n = 6 to 9; for channel open probability Po with 50 nM peptide / channel open probability Po with 100 nM peptide: 25 min following backfilling; for channel open probability Po with 50 nM peptide / channel open probability Po with 100 nM peptide / channel open probability Po with 0 nM peptide (control of the dose series): [Ca2+]i 1 mM, single sample patch
T1 construct: Native SAKcaCs were recorded from ventricular myocytes; endogenous in cells; host or cells: isolated chick ventricular myocytes
T1 sequence (Q8AYS8 1-1195 isoform Q8AYS8-3): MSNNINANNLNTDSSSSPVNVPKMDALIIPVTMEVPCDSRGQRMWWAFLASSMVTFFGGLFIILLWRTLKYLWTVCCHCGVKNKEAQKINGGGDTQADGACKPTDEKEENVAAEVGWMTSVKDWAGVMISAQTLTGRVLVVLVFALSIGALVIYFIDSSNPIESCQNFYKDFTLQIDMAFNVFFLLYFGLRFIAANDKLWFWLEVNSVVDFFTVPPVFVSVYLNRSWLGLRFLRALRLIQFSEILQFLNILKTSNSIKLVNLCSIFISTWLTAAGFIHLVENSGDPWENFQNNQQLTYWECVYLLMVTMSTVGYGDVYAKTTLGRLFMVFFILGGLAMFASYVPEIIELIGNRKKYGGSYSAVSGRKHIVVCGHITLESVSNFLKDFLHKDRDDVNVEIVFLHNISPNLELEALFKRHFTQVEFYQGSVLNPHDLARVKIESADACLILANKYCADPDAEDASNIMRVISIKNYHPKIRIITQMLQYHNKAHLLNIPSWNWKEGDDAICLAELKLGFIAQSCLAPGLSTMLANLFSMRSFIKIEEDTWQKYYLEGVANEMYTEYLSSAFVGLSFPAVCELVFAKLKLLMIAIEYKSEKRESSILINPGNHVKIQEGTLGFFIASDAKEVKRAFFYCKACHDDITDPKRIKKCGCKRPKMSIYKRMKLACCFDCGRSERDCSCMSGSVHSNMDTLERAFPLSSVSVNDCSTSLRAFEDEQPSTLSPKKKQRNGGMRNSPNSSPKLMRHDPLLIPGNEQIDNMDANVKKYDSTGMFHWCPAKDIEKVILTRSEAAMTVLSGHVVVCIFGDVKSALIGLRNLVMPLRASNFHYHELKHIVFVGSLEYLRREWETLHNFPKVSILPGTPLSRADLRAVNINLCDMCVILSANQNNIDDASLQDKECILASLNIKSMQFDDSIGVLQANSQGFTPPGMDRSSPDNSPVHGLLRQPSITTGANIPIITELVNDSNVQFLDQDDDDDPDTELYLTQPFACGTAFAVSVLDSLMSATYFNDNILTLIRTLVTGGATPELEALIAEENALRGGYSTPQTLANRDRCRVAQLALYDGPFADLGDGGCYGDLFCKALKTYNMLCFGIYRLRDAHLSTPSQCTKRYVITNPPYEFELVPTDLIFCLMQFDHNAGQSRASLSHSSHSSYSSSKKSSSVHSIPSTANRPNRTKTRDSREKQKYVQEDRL
Description: Native SAKcaCs were recorded from ventricular myocytes, which were isolated from chick hearts as described previously ([12], [13], [37]).
(§2) Single-channel currents for SAKcaC were recorded under the standard excised inside–out patch configuration. Currents were amplified using an A&M amplifier (Model 2400) or an EPC10 patch-clamp amplifier (HEKA Elektronik). Data were filtered at 10 kHz. The standard pipette solution facing the extracellular surface of the patch contained (in millimolar): 145 potassium gluconate, 1 EGTA, 10 Hepes, and 5 glucose, pH 7.4 was adjusted with NaOH. The bath solution facing the cytoplasmic surface of the patch membrane was the same except the [Ca^2+]i concentration used was 1 mM ([13], [38]).
as §1
(§3) Single-channel conductances of SAKcaC and the STREX-del mutant channel were determined by the slope of current–voltage (I–V) curves, where I–V data could be well fitted with a linear function ([12], [54]). Amplitude histograms were measured in inside–out patches mostly with one to three channels. Histograms were fitted with a Gaussian function using pClampfit software (Molecular Devices Corp.). In the case when only one channel was contained in patches, channel open probability Po (%) was determined simply by driving the total open duration of the sum of the open and closed times in patches as described previously ([51], [55]). When multiple channels were presented in the patch, Po was determined using the area under each peak (aj) at each current level (j) in the histogram along with the number of channels (N):(1) Po=∑j=0n(j∗aj)/n×∑j=0Naj Where N is the channel number in each patch, which was defined from the maximum level observed at a relatively higher voltage of +80 mV under 1 mM [Ca^2+]i.

[2] = molecular target: T2, stretch-activated BK channel (SAKcaC) (Gallus gallus, UniProt Q8AYS8); test: Single-channel excised inside-out patch clamp of SAKcaC expressed in CHO-K1 cells, peptide backfilled in the pipette (extracellular side); format: cell-based, chick; conditions: Vm −80 mV, [Ca2+]i 1 mM
T2 construct: expressed in transfected cells; host or cells: CHO-K1, transient transfection of pcDNA 3.1 with Lipofectamine 2000; pEGFP co-expressed as a separate marker
T2 sequence (Q8AYS8 1-1195 isoform Q8AYS8-3): as above
Excerpt: (§4) The SA BK (SAKca) channel (SAKcaC) gene was cloned from the complementary DNA (cDNA) library (GenBank accession number: AB072618) from chick embryonic hearts ([13]); this was further subcloned into mammalian expression vectors (pcDNA 3.1). SAKca STREX (stress axis–regulated exon) deletion mutation (STREX-Del) was verified by sequencing as published previously ([35], [51]). Cloned SAKcaC (SAKca-WT) or STREX-Del mutant cDNAs were transiently transfected in the CHO-K1 cells using the Lipofectamine 2000 Transfection Reagent (Thermo Fisher Scientific) according to the manufacturer’s protocol. To monitor the successfully transfected cells, pEGFP (Clontech Laboratories) was coexpressed with the SAKca-WT or STREX-Del channel cDNA (5:1, w/w). The transfected cells grown on the coverslip were used for patch-clamp recordings. No endogenous BK channel activity was detected in the untransfected CHO-K1 cells. Currents were normally recorded within 1 week after cDNA transfection ([13], [37], [38]).
as §2, §1
as §3, with “Histograms were fitted with a Gaussian function using pClampfit software (Molecular Devices Corp.).” left out

[3] = test system: STREX-del mutant channel (SAKcaC with STREX-exon removed); test: Single-channel inside-out patch clamp of mechano-insensitive STREX-del mutant channel expressed in CHO cells; format: cell-based, chick
Excerpt: as §4
Single-channel currents for SAKcaC were recorded under the standard excised inside–out patch configuration. […]
as §3, with “Histograms were fitted with a Gaussian function using pClampfit software (Molecular Devices Corp.).” left out

[4] = test system: STREX-del mutant channel (SAKcaC with STREX-exon removed); conditions: earlier work of the authors; cited from earlier work
Excerpt: We next examined whether the two types of peptides function on the mechano-insensitive mutant channel. We have previously identified a mechano-insensitive-mutant (STREX-del) channel, of which the mechanosensor domain (STREX-exon) in SAKcaC was removed ([37], [38]). […] To investigate whether the synthetic short peptides act similarly to GsMTx4, we performed the same experiments to examine the effects of the two types of sh ...

Row | Substance | effect on regular BK (mSlo1) channel, in words (BK (mSlo1) channel) | inhibition of SAKcaC Po at +30 mV ([1]; 50 nM peptide, Vm +30 mV) [%] | inhibition of SAKcaC Po at −50 mV ([1]; 50 nM peptide, Vm −50 mV) [%] | slope factor K^−1 of Po–V relationship (Boltzmann fit) ([1]; 50 nM peptide) | V1/2 of Po–V relationship (Boltzmann fit) ([1]; 50 nM peptide) [mV] | inhibition of SAKcaC at depolarized condition, in words ([1]; 10 μM peptide, Vm +30 mV) | channel open probability Po with 50 nM peptide ([1]; Vm −50 mV) [%] | channel open probability Po with 100 nM peptide ([1]; Vm −50 mV) [%] | channel open probability Po with 0 nM peptide (control of the dose series) ([1]; Vm −50 mV) [%] | Hill cofactor of dose–response curve ([1]; Vm −50 mV) | inhibitory effect on SAKcaC, in words ([2]; 5 μM peptide backfilled) | averaged diffusion/inhibitory rate (τ), single-exponential fit of Po time course ([2]; 5 μM peptide, mean ± SEM, at least four experiments, SEM) [min] | channel open probability Po at 16 min following backfilling ([2]; 5 μM peptide, single sample patch) [%] | channel open probability Po before peptide reaches the membrane (0 peptide, 2 min after backfilling) ([2]; baseline of the same patch, 5 μM peptide backfilled, 22–25 °C, single sample patch) [%] | effect on STREX-del mutant channel, in words ([3]; 10 μM peptide backfilled, −60 mV (Pept 02 also +30 mV), up to 25–30 min) | V1/2 of Po–V relationship of STREX-del (Boltzmann fit) ([3]; 10 μM peptide, Po 25 min following backfilling, control (no peptide) −9.2 ± 2.3 mV, n = 4 to 9) [mV] | slope factor K^−1 of Po–V relationship of STREX-del ([3]; 10 μM peptide, control (no peptide) 23.3 ± 2.8) | effect on STREX-del channel, in words [4]
1 | WKCNPNDDKC (disulfide 3-10 (inferred)) [Pept 02, 10-residue type II peptide derived from loop2 of GsMTx4] | failed to inhibit | ~10.3 | ~71.3 | 22.9 ± 1.11 | −23.7 ± 1.06 | completely inhibited | 22.1 | 6.8 | 72.5 | 1.8 ± 0.52 | enhanced inhibition (%) | 2.89 ± 0.16 | 3.6 | 42.9 | not significantly altered | −5.7 ± 2.6 | 22.5 ± 2.1 | –
2 | GsMTx4 (GCLEFWWKCNPNDDKCCRPKLKCSKLFKLCNFSF; disulfide (positions not given here); ends not checked; UniProt Q7YT39 47-80, looked up) [reference compound] | – | – | – | 24.5 ± 1.63 | −47.2 ± 0.97 | – | 47.1 | 13.8 | 73.6 | 1.6 ± 0.47 | – | – | – | – | – | – | – | without effect
